Source: patent publication US10206893B2, “Immunoregulatory agents” (Flexus Biosciences, Inc., priority 2014, dated 2019)

molecular target: T1, human IDO1 (Homo sapiens, UniProt P14902); assay: IDO inhibition assay in HEK293 cells stably expressing human IDO1 (kynurenine, Ehrlich reagent); assay type: cell-based; details: 20 hours incubation, read-out: HEK Human IDO-1 Bio Activity
T1 construct: expressed in transfected cells
Experimental: They were cultured in medium (DMEM with 10% FBS) containing 1 mg/ml G418 for two weeks.
The human IDO1/HEK293 cells were seeded at 10,000 cells per 50 μL per well with RPMI/phenol red free media contains 10% FBS in a 384-well black wall clear bottom tissue culture plate (Matrix Technologies LLC) 100 nL of certain concentration of compound was then added to each well using ECHO liquid handling systems. The cells were incubated for 20 hours in 37° C. incubator with 5% CO2.
The compound treatments were stopped by adding trichloroacetic acid (Sigma-Aldrich) to a final concentration at 0.2%. The cell plate was further incubated at 50° C. for 30 minute. The equal volume supernatant (20 μL) and 0.2% (w/v) Ehrlich reagent (4-dimethylaminobenzaldehyde, Sigma-Aldrich) in glacial acetic acid were mixed in a new clear bottom 384-well plate. This plate was then incubated at room temperature for 30 minute. The absorbance at 490 nm was measured on Envision plate reader.

T1 sequence (P14902 whole entry): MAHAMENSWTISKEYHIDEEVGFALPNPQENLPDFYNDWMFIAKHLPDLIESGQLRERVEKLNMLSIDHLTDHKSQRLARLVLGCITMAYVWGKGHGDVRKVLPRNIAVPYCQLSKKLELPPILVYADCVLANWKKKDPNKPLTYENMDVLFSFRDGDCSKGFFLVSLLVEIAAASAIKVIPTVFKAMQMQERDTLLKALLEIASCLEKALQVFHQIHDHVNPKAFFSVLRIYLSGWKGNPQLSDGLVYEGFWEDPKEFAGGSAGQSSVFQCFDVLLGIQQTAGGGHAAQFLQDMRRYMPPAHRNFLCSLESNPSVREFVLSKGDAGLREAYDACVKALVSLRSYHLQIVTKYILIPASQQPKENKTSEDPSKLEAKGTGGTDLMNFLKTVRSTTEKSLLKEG

IC50 [nM] | Structure (SMILES)
< 50 | Cc1nccc(C2CCC(C(C)NC(=O)c3ccc(Cl)cc3)CC2)c1C (single isomer, unassigned) [Example 159c, 4-chloro-N-(1-(4-(2,3-dimethylpyridin-4-yl)cyclohexyl)ethyl)benzamide]
< 2000 | Cc1cnccc1C1CCC(C(C)NC(=O)c2ccc(Cl)cc2)CC1 (single isomer, unassigned) [Example 160b, 4-chloro-N-(1-(4-(3-methylpyridin-4-yl)cyclohexyl)ethyl)benzamide]
< 2000 | Cc1cnccc1C1CCC(C(C)NC(=O)c2ccc(Cl)cc2)CC1 (single isomer, unassigned) [Example 160c, 4-chloro-N-(1-(4-(3-methylpyridin-4-yl)cyclohexyl)ethyl)benzamide]

Structure (SMILES) | IC50 [nM]
CC[C@H](NC(=O)c1ccc(-c2ccccc2)cc1)[C@H]1CC[C@H](c2cnc3ccccc3c2)CC1 [Example 202, N—((S)-1-((1r,4S)-4-(quinolin-3-yl)cyclohexyl)propyl)-[1,1′-biphenyl]-4-carboxamide] | < 50
